Source: PMC12346966, “Targeting the Cell Wall Salvage Pathway: Dual-Enzyme Inhibition of AmgK and MurU as a Strategy Against Antibiotic Resistance” (International Journal of Molecular Sciences, 2025)
Values belong to the compound of their own block, whether it stands above or below them.

How the values were obtained:
PaMurU [1] = target: T1, PaMurU (Pseudomonas aeruginosa, UniProt Q9I5U0); assay: SUPR-DSF thermal shift (no Kd); nucleotide preference in enzyme assay; type: binding
T1 construct: gene murU
T1 sequence (Q9I5U0 whole entry): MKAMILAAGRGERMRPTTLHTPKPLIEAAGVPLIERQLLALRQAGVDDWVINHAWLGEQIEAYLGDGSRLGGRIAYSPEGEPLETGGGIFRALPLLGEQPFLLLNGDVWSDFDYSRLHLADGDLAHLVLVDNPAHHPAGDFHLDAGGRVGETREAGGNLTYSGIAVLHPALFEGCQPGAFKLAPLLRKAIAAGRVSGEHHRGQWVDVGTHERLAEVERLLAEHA

PaMurU [2] = target: T1, PaMurU; assay: malachite green dual-enzyme assay IC50; target assigned by ESI-MS; type: biochemical
PaMurU [3] = target: T1, PaMurU; assay: malachite green dual-enzyme assay IC50; target assigned by ESI-MS; SUPR-DSF shift +[…] °C; type: biochemical

ΔTm (PaMurU [1]): 3.86 °C
SMILES: O=c1ccn([C@@H]2O[C@H](COP(=O)(O)OP(=O)(O)OP(=O)(O)O)[C@@H](O)[C@H]2O)c(=O)[nH]1 [UTP]

SMILES: CCCCCCCCCCCCCCCC[N+](C)(C)C [compound 1, CTAB]
IC50 (PaMurU [2]): 8.25 µM

IC50 (PaMurU [3]): 14 µM
SMILES: Nc1c(/N=N/c2ccc(-c3ccc(/N=N/c4cc(S(=O)(=O)O)c5ccccc5c4N)cc3)cc2)cc(S(=O)(=O)O)c2ccccc12 [compound 2, 4-amino-3-[[4-[4-[(1-amino-4-sulfonatonaphthalen-2-yl)diazenyl]phenyl]phenyl]diazenyl] naphthalene-1-sulfonate]
